Measurements reported in patent publication US20080214394A1, “N-(4-Pyridyl)Methylsulfonamides For Combating Arthropodal Pests” (BASF Aktiengesellschaft, priority 2005, published 2008).

Experiments:
[1] = system: Boll Weevil (Anthonomus grandis); assay: whole plant or invertebrate; format: in vivo; conditions: eggs sprayed with 20 μl, 3 to 5 days
[2] = system: Tobacco Budworm (Heliothis virescens); assay: whole plant or invertebrate; format: in vivo; conditions: 144 h, eggs sprayed with 10 μl, 6 days

Molecule `O=S(=O)(NCc1ccnc2ccccc12)c1ccc(Br)s1` [Compound I-70, 5-bromo-thiophene-2-sulfonic acid (quinoline-4-ylmethyl)-amide] has a mortality at 2500 ppm [1] of over 50% and a mortality at 2500 ppm [2] of over 75%.
